For assay [1], the target named is T1, kinase domain of human CSF1-R (Homo sapiens, UniProt P07333).
T1 construct: from codon I553 to Q961; made in house; host or cells: Sf9 insect cells (baculovirus)
T1 sequence (P07333 553-961): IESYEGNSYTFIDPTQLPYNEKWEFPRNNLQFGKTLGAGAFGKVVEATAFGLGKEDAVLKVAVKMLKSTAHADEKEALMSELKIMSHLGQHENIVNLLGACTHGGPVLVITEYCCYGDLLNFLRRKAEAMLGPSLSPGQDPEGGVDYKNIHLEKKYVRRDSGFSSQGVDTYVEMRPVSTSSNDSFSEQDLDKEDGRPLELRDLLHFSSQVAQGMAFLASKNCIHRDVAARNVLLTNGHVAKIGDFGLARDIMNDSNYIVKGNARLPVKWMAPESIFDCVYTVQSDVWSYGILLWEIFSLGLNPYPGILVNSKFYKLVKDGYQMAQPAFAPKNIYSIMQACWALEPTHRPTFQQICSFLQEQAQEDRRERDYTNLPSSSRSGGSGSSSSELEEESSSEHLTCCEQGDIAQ
Nature of the assay: Alphascreen protein tyrosine kinase assay, CSF-1R. It is filed as biochemical. The method, then: (§1) For screening purposes, compounds were diluted in 96 well plates at a concentration of 20 μM. Plates were warmed at 37° C. for 30 minutes before assay.
The kinase domain of human CSF1-R from codon I553 to Q961 was cloned into the pDEST-20 expression vector (Invitrogen). The CSF1-R plasmid was then transformed into competent DH10Bac cells (Gibco), and the recombinant baculovirus produced prepared for transfection into Sf9 insect cells.
(§2) Baculovirus preparations from each of construct were infected into five liters of SF9 cells (Invitrogen) grown in SF-900 medium (Invitrogen) to a cell density of approximately 1−2×10^6 cells/ml. […] Cells were harvested and lysed. Tyrosine kinase domains were purified by affinity chromatography on a glutathione-agarose column (Scientifix Pty. Ltd. catalog #: GSH-200).
(§3) Kinase assays were performed in 384 well Optiplates (Packard) using an Alphascreen Protein Tyrosine Kinase kit. […] Alphascreen phosphotyrosine acceptor beads followed by streptavidin donor beads were added under subdued light. The Alphascreen plates were read on a Packard Fusion Alpha. Inhibitors were added to the assays thirty minutes prior to the addition of ATP. Inhibitors were added in aqueous DMSO, with DMSO concentrations never exceeding 1%.
Background: In Alpha technology, singlet oxygen from a donor bead excites a nearby acceptor bead.

The target in assay [2] is T2, kinase domain of human c-kit (Homo sapiens, UniProt P10721).
T2 construct: from codon M552 to end; made in house; host or cells: Sf9 insect cells (baculovirus)
Nature of the assay: Alphascreen protein tyrosine kinase assay, c-KIT. It is filed as biochemical. The method, then: as §1
The kinase domain of human c-kit from codon M552 to end was cloned into the pDEST-20 expression vector (Invitrogen). The c-kit plasmid was then transformed into competent DH10Bac cells (Gibco), and the recombinant baculovirus produced prepared for transfection into Sf9 insect cells.
as §2, §3

In the next assay the target is T3, FLT-3 tyrosine kinase (Homo sapiens, UniProt P36888).
T3 construct: purchased Upstate Cell Signalling Solutions, CA, USA 14-500
T3 sequence (P36888 27-993): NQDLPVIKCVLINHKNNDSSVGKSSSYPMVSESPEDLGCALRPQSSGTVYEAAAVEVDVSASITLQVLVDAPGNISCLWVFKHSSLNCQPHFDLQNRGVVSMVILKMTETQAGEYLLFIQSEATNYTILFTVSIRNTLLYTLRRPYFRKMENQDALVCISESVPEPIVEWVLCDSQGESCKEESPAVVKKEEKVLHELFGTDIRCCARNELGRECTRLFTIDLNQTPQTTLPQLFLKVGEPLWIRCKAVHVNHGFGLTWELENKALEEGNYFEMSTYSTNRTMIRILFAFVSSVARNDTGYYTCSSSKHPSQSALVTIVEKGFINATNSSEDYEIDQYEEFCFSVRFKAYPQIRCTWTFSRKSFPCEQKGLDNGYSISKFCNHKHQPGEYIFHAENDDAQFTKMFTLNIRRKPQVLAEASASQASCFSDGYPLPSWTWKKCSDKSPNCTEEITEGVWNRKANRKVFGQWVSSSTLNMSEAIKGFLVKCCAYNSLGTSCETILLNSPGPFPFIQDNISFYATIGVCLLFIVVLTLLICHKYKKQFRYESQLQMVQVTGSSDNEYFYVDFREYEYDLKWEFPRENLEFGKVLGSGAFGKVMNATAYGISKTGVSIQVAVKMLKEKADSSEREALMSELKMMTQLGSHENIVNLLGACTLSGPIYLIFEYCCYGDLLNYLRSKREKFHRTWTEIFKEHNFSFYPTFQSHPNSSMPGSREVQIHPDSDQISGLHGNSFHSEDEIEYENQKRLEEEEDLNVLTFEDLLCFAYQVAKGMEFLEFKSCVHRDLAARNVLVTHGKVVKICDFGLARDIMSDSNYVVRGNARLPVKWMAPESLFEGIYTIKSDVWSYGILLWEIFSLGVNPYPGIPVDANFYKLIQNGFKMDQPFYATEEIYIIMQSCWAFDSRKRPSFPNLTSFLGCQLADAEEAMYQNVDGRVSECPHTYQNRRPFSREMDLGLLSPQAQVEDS
Nature of the assay: Alphascreen protein tyrosine kinase assay, FLT-3. It is filed as biochemical. To be noted: read-out: Flt3.

The next assay has as its target T4, PDGFR β tyrosine kinase (Homo sapiens, UniProt P09619).
T4 construct: purchased Upstate Cell Signalling Solutions, CA, USA 14-463
Nature of the assay: Alphascreen protein tyrosine kinase assay, PDGFRβ. Type of assay: biochemical.

The target in a further assay is T5, KDR protein kinase (Homo sapiens, UniProt P35968).
T5 construct: purchased Millipore 14-630M
Nature of the assay: Alphascreen protein tyrosine kinase assay, KDR. It is filed as biochemical. On the procedure:
as §1
FLT-3 and PDGFR β tyrosine kinase enzymes were purchased from Upstate Cell Signalling Solutions, CA, USA (flt-3 catalog #: 14-500 and PDGFR β catalog #: 14-463). KDR protein kinase enzyme was purchased from Millipore (catalogue #14-630M).
Kinase assays were performed in 384 well Optiplates (Packard) using an Alphascreen Protein Tyrosine Kinase kit. […] The biotinylated peptides Biotin-[…]-NH2 for c-KIT and PDGFRβ and Biotin-[…]-NH2 for CSF1-R and FLT-3 (final concentration 0.1-3 μM) were used as substrates. Alphascreen phosphotyrosine acceptor beads followed by streptavidin donor beads were added under subdued light. The Alphascreen plates were read on a Packard Fusion Alpha. Inhibitors were added to the assays thirty minutes prior to the addition of ATP. Inhibitors were added in aqueous DMSO, with DMSO concentrations never exceeding 1%.

For the next assay, the system named is mNFS-60. Put plainly: Cellular assay (Alamar Blue), mNFS-60 with human M-CSF. Type of assay: cell-based. To be noted: human M-CSF at 20 ng/ml, 72 hr. On the procedure:
(§4) Cells for the assays were prepared by harvesting cells from culture, and then diluting them in the appropriate growth medium to between 40,000 cell/mL and 600,000 cell/mL, depending on the cell line.
(§5) The compounds to be tested were added (104, 10× final concentration) to a flat bottomed 96-well plate. The cellular suspension (80 μL per well) was added, and one hour later the growth factor was added (human M-CSF at 20 ng/ml for mNFS-60, mouse IL-3 at 5 ng/ml for Baf3-WT). The plate was then incubated for 72 hr at 37° C., 5% CO2. Alamar Blue (10^4 per well) was added and the plates returned to the incubator for a further 4-8 hours.
(§6) The plates were then read using a fluorescence plate reader at excitation 544 nm and emission 590 nm.
On the technique in general: Alamar Blue is a resazurin reagent that responds to reducing activity.

A further assay has as its system Baf3-WT. Put plainly: Cellular assay (Alamar Blue), Baf3-WT with mouse IL-3. To be noted: mouse IL-3 at 5 ng/ml, 72 hr. Type of assay: cell-based. On the procedure:
as §4, §5, §6

T2 sequence (P10721 552-976 limits assumed): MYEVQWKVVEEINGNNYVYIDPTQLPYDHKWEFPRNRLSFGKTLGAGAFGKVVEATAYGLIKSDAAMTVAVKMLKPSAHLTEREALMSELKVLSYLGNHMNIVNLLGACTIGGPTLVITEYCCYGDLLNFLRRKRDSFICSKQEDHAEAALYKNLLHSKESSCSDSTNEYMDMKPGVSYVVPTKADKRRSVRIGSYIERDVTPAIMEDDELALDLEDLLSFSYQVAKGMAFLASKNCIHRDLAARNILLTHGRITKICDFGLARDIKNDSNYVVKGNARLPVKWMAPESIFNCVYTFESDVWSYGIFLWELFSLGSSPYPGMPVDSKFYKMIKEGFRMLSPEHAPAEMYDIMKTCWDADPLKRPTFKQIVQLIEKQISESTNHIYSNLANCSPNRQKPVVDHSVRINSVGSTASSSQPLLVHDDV
T4 sequence (P09619 33-1106): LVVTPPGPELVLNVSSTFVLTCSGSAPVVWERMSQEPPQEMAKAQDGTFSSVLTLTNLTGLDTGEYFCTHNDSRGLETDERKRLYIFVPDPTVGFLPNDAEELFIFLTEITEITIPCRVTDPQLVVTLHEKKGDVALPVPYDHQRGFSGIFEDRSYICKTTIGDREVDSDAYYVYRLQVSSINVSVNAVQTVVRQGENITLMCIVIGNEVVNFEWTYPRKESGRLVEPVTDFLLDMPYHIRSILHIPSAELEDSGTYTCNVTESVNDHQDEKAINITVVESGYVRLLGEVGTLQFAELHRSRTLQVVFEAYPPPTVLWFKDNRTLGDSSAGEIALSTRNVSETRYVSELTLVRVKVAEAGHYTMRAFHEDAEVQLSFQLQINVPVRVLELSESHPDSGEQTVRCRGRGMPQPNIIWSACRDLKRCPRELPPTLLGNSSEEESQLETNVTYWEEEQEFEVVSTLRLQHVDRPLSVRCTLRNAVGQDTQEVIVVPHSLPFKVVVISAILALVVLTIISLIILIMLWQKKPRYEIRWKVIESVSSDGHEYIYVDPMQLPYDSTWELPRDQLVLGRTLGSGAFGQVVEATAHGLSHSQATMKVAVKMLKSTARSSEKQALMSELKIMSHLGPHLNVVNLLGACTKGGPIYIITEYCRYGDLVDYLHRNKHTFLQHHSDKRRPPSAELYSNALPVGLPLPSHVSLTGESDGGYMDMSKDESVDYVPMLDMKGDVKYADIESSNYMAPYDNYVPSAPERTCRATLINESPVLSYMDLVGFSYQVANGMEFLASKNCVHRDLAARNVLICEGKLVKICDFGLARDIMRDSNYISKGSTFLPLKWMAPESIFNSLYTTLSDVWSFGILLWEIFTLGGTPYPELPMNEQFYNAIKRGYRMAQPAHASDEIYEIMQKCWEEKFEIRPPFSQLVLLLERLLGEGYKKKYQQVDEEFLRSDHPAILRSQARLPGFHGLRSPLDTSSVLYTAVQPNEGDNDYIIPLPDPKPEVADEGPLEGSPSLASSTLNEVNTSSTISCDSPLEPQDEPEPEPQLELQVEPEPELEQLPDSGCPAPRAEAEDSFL
T5 sequence (P35968 20-1356): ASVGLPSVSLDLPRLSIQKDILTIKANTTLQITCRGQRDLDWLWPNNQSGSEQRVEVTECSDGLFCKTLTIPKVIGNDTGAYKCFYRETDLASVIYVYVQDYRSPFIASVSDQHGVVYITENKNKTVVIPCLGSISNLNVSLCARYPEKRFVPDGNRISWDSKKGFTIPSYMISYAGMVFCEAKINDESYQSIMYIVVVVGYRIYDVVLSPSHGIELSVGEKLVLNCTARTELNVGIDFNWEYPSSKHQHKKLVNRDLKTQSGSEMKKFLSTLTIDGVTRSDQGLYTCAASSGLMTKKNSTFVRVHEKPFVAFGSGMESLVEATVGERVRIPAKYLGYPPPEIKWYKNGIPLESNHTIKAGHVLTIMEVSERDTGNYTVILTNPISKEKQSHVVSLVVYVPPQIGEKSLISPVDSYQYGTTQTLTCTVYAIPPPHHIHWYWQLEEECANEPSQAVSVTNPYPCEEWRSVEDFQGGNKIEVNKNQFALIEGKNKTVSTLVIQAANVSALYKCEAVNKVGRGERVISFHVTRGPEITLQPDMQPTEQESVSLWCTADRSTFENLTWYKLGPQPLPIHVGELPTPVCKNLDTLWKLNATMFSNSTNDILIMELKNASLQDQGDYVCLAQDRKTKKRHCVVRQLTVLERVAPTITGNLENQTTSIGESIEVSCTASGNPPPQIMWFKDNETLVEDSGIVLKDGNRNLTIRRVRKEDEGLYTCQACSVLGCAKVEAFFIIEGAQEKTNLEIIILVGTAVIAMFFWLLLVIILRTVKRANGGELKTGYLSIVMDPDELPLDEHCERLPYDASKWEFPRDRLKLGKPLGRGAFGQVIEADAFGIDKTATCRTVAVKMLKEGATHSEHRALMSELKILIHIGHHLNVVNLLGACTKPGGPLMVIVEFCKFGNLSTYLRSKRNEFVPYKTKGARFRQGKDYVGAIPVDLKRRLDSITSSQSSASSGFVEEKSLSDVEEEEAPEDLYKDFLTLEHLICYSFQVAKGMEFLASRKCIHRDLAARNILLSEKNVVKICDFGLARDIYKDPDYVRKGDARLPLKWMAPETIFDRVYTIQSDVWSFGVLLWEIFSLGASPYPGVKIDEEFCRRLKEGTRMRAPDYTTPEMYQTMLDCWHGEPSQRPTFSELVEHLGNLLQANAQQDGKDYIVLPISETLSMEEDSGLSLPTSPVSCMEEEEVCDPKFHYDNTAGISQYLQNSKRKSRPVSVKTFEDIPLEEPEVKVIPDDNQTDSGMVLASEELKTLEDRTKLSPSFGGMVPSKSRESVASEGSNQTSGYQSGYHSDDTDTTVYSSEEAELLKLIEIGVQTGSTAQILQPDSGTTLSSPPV

As for `Cc1cccc(C(=O)Nc2cccc([C@H](C)Nc3cncc(N4CCC(O)CC4)n3)c2)c1` [Compound 95], the IC50 in assay [1] was below 100 nM; in assay [2] it was below 1000 nM; on FLT-3 tyrosine kinase, above 10000 nM; at PDGFR β tyrosine kinase, below 1000 nM.

Regarding `Cc1cccc(C(=O)Nc2cccc([C@H](C)Nc3cncc(-c4ccc(N5CCOCC5)cc4)n3)c2)c1` [Compound 81], the IC50 in assay [1] was below 100 nM; in assay [2], below 100 nM; at FLT-3 tyrosine kinase, above 10000 nM; at PDGFR β tyrosine kinase, below 1000 nM.

Turning to `Cc1cncc(C(=O)Nc2cccc([C@H](C)Nc3cncc(-c4ccc(NCCN5CCOCC5)nc4)n3)c2)c1` [Compound 80], the IC50 in assay [1] is below 100 nM; in assay [2], below 100 nM; on FLT-3 tyrosine kinase, above 10000 nM; against PDGFR β tyrosine kinase it was below 1000 nM.

`COc1cccc(-c2cncc(N[C@@H](C)c3cccc(NC(=O)c4cncc(C)c4)c3)n2)c1` [Compound 24]: the IC50 in assay [1] is below 100 nM; in assay [2], below 100 nM; on FLT-3 tyrosine kinase, below 10000 nM; on PDGFR β tyrosine kinase, below 100 nM; against KDR protein kinase, below 100 nM; with mNFS-60, below 200 nM. This compound also showed an IC50 in the assay with Baf3-WT above 10000 nM.

`C[C@H](Nc1cncc(Cl)n1)c1cccc(NC(=O)c2ccc(CN3CCN(C)CC3)cc2)c1` [Compound 91]: the IC50 in assay [1] was below 100 nM; in assay [2] it was below 1000 nM; at FLT-3 tyrosine kinase it was above 10000 nM; against PDGFR β tyrosine kinase it was below 1000 nM.
